In patent publication US20240158418A1 (C4 Therapeutics, Inc., priority 2021, published 2024):

The molecules below were run against T1, EGFR L858R-T790M (Homo sapiens, UniProt P00533, L858R/T790M) (assay: EGFR degradation, Total EGFR (L858R-specific) HTRF, NCI-H1975). Conditions: Table 9A; NCI-H1975 cells, 6 hours, Total EGFR HTRF; read-out: H1975 EGFR DC50.
T1 construct: NCI-H1975 (harboring EGFR heterozygous L858R-T790M mutations); host or cells: NCI-H1975
Type: cell-based
Excerpt: NCI-H1975 (harboring EGFR heterozygous L858R-T790M mutations) and NCI-H3255 (harboring EGFR heterozygous L858R mutation) were purchased from ATCC and NCI, respectively. NCI-H1975+CS (harboring EGFR heterozygous L858R-T790M-C797S mutations) was generated using CRISPR technology to introduce the additional C797S mutation by Horizon Discovery. A431 (harboring EGFR wildtype) was purchased from ATCC. RPMI 1640 no-phenol red medium and fetal bovine serum (FBS) were purchased from Gibco (Grand Island, NY, USA). Cell culture flasks and 384-well microplates were acquired from VWR (Radnor, PA, USA). Phosphorylated (pY1068) EGFR and Total EGFR (using L858R-specific detection antibody and pan-EGFR antibody for EGFR mutant cell lines and EGFR wild-type cell lines, respectively) HTRF assay kits were purchased from Cisbio (Bedford, MA, USA).
Degradation of EGFR protein containing L858R mutation or wild-type was determined based on quantification of FRET signal using a Total EGFR (L858R-specific or pan-EGFR detecting) HTRF assay kit. Phospho-EGFR (pEGFR) inhibition was determined based on quantification of FRET signal using a pY1068 EGFR HTRF assay kit. In separate assay plates, test compounds were added to the 384-well plate from a top concentration of 10 μM with 11 points, half log titration in duplicates. For each assay, 12.5 uL of cells suspended in assay media (RPMI 1640 no-phenol red medium+10% FBS) at cell densities indicated for each cell line in Table 8 below were dispensed using a multi-channel pipette to 384-well low volume white HTRF microplates containing a duplicate concentration range of test compounds and DMSO controls. The plates were kept at 37° C. with 5% CO2 for 6 hours and then incubated with either phospho EGFR or Total EGFR HTRF detection antibodies according to the cell line and EGFR mutant being assayed. Cells treated in the absence of the test compound were the negative control. Positive control was set by wells containing all reagents but no cells. FRET signal was acquired on EnVision™ Multilabel Reader (PerkinElmer, Santa Clara, CA, USA). Compound concentration that achieves 50% degradation and inhibition was reported as DC50 and IC50, respectively.

T1 sequence (P00533 25-1210 T790M/L858R): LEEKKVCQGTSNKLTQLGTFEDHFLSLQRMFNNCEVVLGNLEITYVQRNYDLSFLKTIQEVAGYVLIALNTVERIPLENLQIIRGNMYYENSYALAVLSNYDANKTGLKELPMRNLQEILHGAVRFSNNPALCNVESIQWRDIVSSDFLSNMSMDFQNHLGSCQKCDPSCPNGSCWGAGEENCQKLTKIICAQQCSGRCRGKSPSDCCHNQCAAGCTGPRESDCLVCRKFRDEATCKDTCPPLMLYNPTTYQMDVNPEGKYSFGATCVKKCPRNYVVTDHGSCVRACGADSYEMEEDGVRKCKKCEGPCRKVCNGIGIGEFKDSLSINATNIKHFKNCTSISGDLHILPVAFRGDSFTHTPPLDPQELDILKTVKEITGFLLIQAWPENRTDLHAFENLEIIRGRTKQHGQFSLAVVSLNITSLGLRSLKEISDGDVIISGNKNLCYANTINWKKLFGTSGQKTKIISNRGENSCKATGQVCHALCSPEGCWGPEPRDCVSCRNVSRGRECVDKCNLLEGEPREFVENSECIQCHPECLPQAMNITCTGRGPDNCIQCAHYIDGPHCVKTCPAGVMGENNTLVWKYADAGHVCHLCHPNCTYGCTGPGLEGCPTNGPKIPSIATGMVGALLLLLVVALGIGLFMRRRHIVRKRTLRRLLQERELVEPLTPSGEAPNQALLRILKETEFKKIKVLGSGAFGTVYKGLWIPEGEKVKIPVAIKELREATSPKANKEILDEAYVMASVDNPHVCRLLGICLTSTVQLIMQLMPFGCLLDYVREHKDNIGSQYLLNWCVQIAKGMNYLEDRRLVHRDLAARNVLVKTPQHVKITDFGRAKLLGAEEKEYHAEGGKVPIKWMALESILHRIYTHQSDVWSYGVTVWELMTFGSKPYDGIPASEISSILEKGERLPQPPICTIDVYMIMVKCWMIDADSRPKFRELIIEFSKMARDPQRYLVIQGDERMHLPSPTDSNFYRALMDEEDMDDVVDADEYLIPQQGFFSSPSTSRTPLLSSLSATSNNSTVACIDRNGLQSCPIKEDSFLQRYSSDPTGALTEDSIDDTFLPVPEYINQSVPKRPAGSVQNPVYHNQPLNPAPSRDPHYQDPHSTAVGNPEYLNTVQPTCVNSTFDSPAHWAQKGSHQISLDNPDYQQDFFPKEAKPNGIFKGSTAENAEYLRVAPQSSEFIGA

Row | DC50 [nM] | SMILES
1 | < 50 | O=C1CC[C@H](Nc2ccc(C3CCN(CC(=O)N4CC[C@H](Oc5ccc(-c6cc(F)c7c(c6)C(=O)N(C(C(=O)Nc6nccs6)c6ncn8c6CCC8)C7)cc5)C4)CC3)cc2)C(=O)N1 (stereo partly drawn) [Compound 42, 2-(6,7-dihydro-5H-pyrrolo[1,2-c]imidazol-1-yl)-2-[6-[4-[(3S)-1-[2-[4-[4-[[(3S)-2,6-dioxo-3-piperidyl]amino]phenyl]-1-piperidyl]acetyl]pyrrolidin-3-yl]oxyphenyl]-4-fluoro-1-oxo-isoindolin-2-yl]-N-thiazol-2-yl-acetamide]
2 | < 50 | O=C1CCC(Nc2ccc(C3CCN(CC(=O)N4CCC(Oc5ccc(-c6cc(F)c7c(c6)C(=O)N(C(C(=O)Nc6nccs6)c6ncn8c6CCC8)C7)cc5)CC4)CC3)cc2)C(=O)N1 (centres unmarked) [Compound 31, 2-(6,7-dihydro-5H-pyrrolo[1,2-c]imidazol-1-yl)-2-[6-[4-[[1-[2-[4-[4-[(2,6-dioxo-3-piperidyl)amino]phenyl]-1-piperidyl]acetyl]-4-piperidyl]oxy]phenyl]-4-fluoro-1-oxo-isoindolin-2-yl]-N-thiazol-2-yl-acetamide]
3 | 50 to 150 | O=C1CCC(Nc2ccc(C3CCN(CC(=O)N4CCN(c5ccc(-c6cc(F)c7c(c6)C(=O)N(C(C(=O)Nc6nccs6)c6ncn8c6CCC8)C7)cc5)CC4)CC3)cc2F)C(=O)N1 (centres unmarked) [Compound 13, 2-(6,7-dihydro-5H-pyrrolo[1,2-c]imidazol-1-yl)-2-[6-[4-[4-[2-[4-[4-[(2,6-dioxo-3-piperidyl)amino]-3-fluoro-phenyl]-1-piperidyl]acetyl]piperazin-1-yl]phenyl]-4-fluoro-1-oxo-isoindolin-2-yl]-N-thiazol-2-yl-acetamide]
4 | < 50 | O=C1CCC(N2Cc3c(OC4CCN(C(=O)CCCN5CCN(c6ccc(-c7ccc8cn(C(C(=O)Nc9nccs9)c9ncn%10c9CCC%10)nc8c7F)cn6)CC5)CC4)cccc3C2=O)C(=O)N1 (racemic) [Compound 62, (2RS)-2-(6,7-Dihydro-5H-pyrrolo[1,2-c]imidazol-1-yl)-2-[7-fluoro-6-[6-[4-[4-oxo-4-[4-[1-oxo-2-[(3RS)-2,6-dioxo-3-piperidyl]isoindolin-4-yl]oxy-1-piperidyl]butyl]piperazin-1-yl]-3-pyridyl]indazol-2-yl]-N-thiazol-2-yl-acetamide]

Same assay, conditions: Table 9B; NCI-H1975 cells, 6 hours, Total EGFR HTRF; read-out: H1975 EGFR DC50

Row | SMILES | DC50 [nM]
5 | O=C1CCC(Nc2ccc(CC(=O)N3CCC(NC(=O)c4ccc(C#Cc5cc(F)c6c(c5)C(=O)N(C(C(=O)Nc5nccs5)c5ncn7c5CCC7)C6)cn4)CC3)cc2)C(=O)N1 (centres unmarked) [Compound 93, 5-[2-[2-[1-(6,7-dihydro-5H-pyrrolo[1,2-c]imidazol-1-yl)-2-oxo-2-(thiazol-2-ylamino)ethyl]-7-fluoro-3-oxo-isoindolin-5-yl]ethynyl]-N-[1-[2-[4-[(2,6-dioxo-3-piperidyl)amino]phenyl]acetyl]-4-piperidyl]pyridine-2-carboxamide] | < 50
6 | O=C1CCC(Nc2cnc(N3CCC(O)(CC(=O)N4CC5(C4)CN(c4ccc(-c6cc(F)c7c(c6)C(=O)N(C(C(=O)Nc6nccs6)c6ncn8c6CCC8)C7)cc4)C5)CC3)c(F)c2)C(=O)N1 (centres unmarked) [Compound 90, 2-(6,7-dihydro-5H-pyrrolo[1,2-c]imidazol-1-yl)-2-(6-(4-(6-(2-(1-(5-((2,6-dioxopiperidin-3-yl)amino)-3-fluoropyridin-2-yl)-4-hydroxypiperidin-4-yl)acetyl)-2,6-diazaspiro[3.3]heptan-2-yl)phenyl)-4-fluoro-1-oxoisoindolin-2-yl)-N-(thiazol-2-yl)acetamide] | < 50
7 | O=C1CC[C@H](Nc2ccc(C3CCN(CC(=O)N4CC5(C4)CN(c4ccc(-c6cc(F)c7c(c6)C(=O)N(C(C(=O)Nc6nccs6)c6ncn8c6CCC8)C7)cn4)C5)CC3)c(F)c2)C(=O)N1 (stereo partly drawn) [Compound 95, 2-(6,7-dihydro-5H-pyrrolo[1,2-c]imidazol-1-yl)-2-(6-(6-(6-(2-(4-(4-(((S)-2,6-dioxopiperidin-3-yl)amino)-2-fluorophenyl)piperidin-1-yl)acetyl)-2,6-diazaspiro[3.3]heptan-2-yl)pyridin-3-yl)-4-fluoro-1-oxoisoindolin-2-yl)-N-(thiazol-2-yl)acetamide] | < 50

The remaining lines, values ahead:

Row | DC50 [nM] | SMILES
8 | < 50 | Cn1nc(N2CCC(=O)NC2=O)c2ccc(N3CCC(O)(CC(=O)N4CC5(C4)CN(c4ccc(-c6cc(F)c7c(c6)C(=O)N(C(C(=O)Nc6nccs6)c6ncn8c6CCC8)C7)cc4)C5)CC3)cc21 (centres unmarked) [Compound 109, 2-(6,7-dihydro-5H-pyrrolo[1,2-c]imidazol-1-yl)-2-(6-(4-(6-(2-(1-(3-(2,4-dioxotetrahydropyrimidin-1(2H)-yl)-1-methyl-1H-indazol-6-yl)-4-hydroxypiperidin-4-yl)acetyl)-2,6-diazaspiro[3.3]heptan-2-yl)phenyl)-4-fluoro-1-oxoisoindolin-2-yl)-N-(thiazol-2-yl)acetamide]
9 | 50 to 150 | O=C1CCN(c2ccc(N3CCC(O)(CC(=O)N4CC5(C4)CN(c4ccc(-c6cc(F)c7c(c6)C(=O)N(C(C(=O)Nc6nccs6)c6ncn8c6CCC8)C7)cc4)C5)CC3)c(F)c2)C(=O)N1 (centres unmarked) [Compound 156, 2-(6,7-dihydro-5H-pyrrolo[1,2-c]imidazol-1-yl)-2-[6-[4-[2-[2-[1-[4-(2,4-dioxohexahydropyrimidin-1-yl)-2-fluoro-phenyl]-4-hydroxy-4-piperidyl]acetyl]-2,6-diazaspiro[3.3]heptan-6-yl]phenyl]-4-fluoro-1-oxo-isoindolin-2-yl]-N-thiazol-2-yl-acetamide]
10 | 50 to 150 | O=C1CCC(Nc2cc(F)c(N3CCC(O)(CC(=O)N4CCC5(CC4)CN(c4ccc(-c6cc(F)c7c(c6)C(=O)N(C(C(=O)Nc6nccs6)c6ncn8c6CCC8)C7)cc4)C5)CC3)c(F)c2)C(=O)N1 (single isomer, unassigned; isomer 1) [Compound 137, 2-(6,7-dihydro-5H-pyrrolo[1,2-c]imidazol-1-yl)-2-[6-[4-[7-[2-[1-[4-[2,6-dioxo-3-piperidyl]amino]-2,6-difluoro-phenyl]-4-hydroxy-4-piperidyl]acetyl]-2,7-diazaspiro[3.5]nonan-2-yl]phenyl]-4-fluoro-1-oxo-isoindolin-2-yl]-N-thiazol-2-yl-acetamide, isomer 1]
11 | < 50 | Cn1nc(N2CCC(=O)NC2=O)c2cc(F)c(N3CCC(O)(CC(=O)N4CC5(C4)CN(c4ccc(-c6cc(F)c7c(c6)C(=O)N(C(C(=O)Nc6nccs6)c6ncn8c6CCC8)C7)cc4)C5)CC3)cc21 (centres unmarked) [Compound 127, 2-(6,7-dihydro-5H-pyrrolo[1,2-c]imidazol-1-yl)-2-[6-[4-[2-[2-[1-[3-(2,4-dioxohexahydropyrimidin-1-yl)-5-fluoro-1-methyl-indazol-6-yl]-4-hydroxy-4-piperidyl]acetyl]-2,6-diazaspiro[3.3]heptan-6-yl]phenyl]-4-fluoro-1-oxo-isoindolin-2-yl]-N-thiazol-2-yl-acetamide]
12 | < 50 | O=C1CCC(Nc2ccc(N3CCC(O)(CC(=O)N4CCC5(C4)CN(c4ccc(-c6cc(F)c7c(c6)C(=O)N(C(C(=O)Nc6nccs6)c6ncn8c6CCC8)C7)cc4)C5)CC3)c(F)c2)C(=O)N1 (centres unmarked) [Compound 115, 2-(6,7-dihydro-5H-pyrrolo[1,2-c]imidazol-1-yl)-2-[6-[4-[7-[2-[1-[4-[(2,6-dioxo-3-piperidyl)amino]-2-fluoro-phenyl]-4-hydroxy-4-piperidyl]acetyl]-2,7-diazaspiro[3.4]octan-2-yl]phenyl]-4-fluoro-1-oxo-isoindolin-2-yl]-N-thiazol-2-yl-acetamide]
13 | < 50 | O=C1CCC(Nc2cnc(C3CCN(CC(=O)N4CC5(C4)CN(c4ccc(-c6cc(F)c7c(c6)C(=O)N(C(C(=O)Nc6nccs6)c6ncn8c6CCC8)C7)cc4)C5)CC3)c(F)c2)C(=O)N1 (centres unmarked) [Compound 112, 2-(6,7-dihydro-5H-pyrrolo[1,2-c]imidazol-1-yl)-2-(6-(4-(6-(2-(4-(5-((2,6-dioxopiperidin-3-yl)amino)-3-fluoropyridin-2-yl)piperidin-1-yl)acetyl)-2,6-diazaspiro[3.3]heptan-2-yl)phenyl)-4-fluoro-1-oxoisoindolin-2-yl)-N-(thiazol-2-yl)acetamide]
14 | < 50 | O=C1CCC(Nc2cnc(N3CCC(O)(CC(=O)N4CC5(C4)CN(c4ccc(-c6cc(F)c7c(c6)C(=O)N(C(C(=O)Nc6nccs6)c6ncn8c6CCC8)C7)cc4)C5)CC3)c(F)c2)C(=O)N1 (single isomer, unassigned; isomer 1) [Compound 139, 2-(6,7-dihydro-5H-pyrrolo[1,2-c]imidazol-1-yl)-2-[6-[4-[2-[2-[1-[5-[[2,6-dioxo-3-piperidyl]amino]-3-fluoro-2-pyridyl]-4-hydroxy-4-piperidyl]acetyl]-2,6-diazaspiro[3.3]heptan-6-yl]phenyl]-4-fluoro-1-oxo-isoindolin-2-yl]-N-thiazol-2-yl-acetamide, isomer 1]
